According to patent US12509421B2, “Preparation and application of deuterated 4-phenyl-4-piperidinols” (priority 2022, dated 2025):
Where a name gives a salt, the structure may show the parent alone. Read-outs that look alike come from different tables or passages of the source.

Assays:
hERG potassium channel = hERG potassium channel (Homo sapiens, UniProt Q12809); assay: hERG potassium channel whole-cell patch clamp (HEK293); type: cell-based; set-up: expressed in transfected cells; host or cells: HEK293 cell line; conditions: for IC50: HEK293 cells stably expressing hERG, whole-cell patch clamp, room temperature, read-out: Half-inhibition concentration of compounds to be tested on hERG (IC50)
In short: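 Whole-cell patch clamp in HEK293 cells at room temperature: tail current elicited by −80 to 30 mV for 2.5 s, then −50 mV for 4 s, every 10 s. Ascending concentrations were gravity-perfused for 5 min each, with each cell's compound-free current as control. IC50 came from nonlinear fit of inhibition.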

Female Kunming mice = conditions: as disclosed in patent CN201911076305.X; cited from earlier work

Chain of hERG potassium channel (Q12809 whole entry, the tested form may be a part): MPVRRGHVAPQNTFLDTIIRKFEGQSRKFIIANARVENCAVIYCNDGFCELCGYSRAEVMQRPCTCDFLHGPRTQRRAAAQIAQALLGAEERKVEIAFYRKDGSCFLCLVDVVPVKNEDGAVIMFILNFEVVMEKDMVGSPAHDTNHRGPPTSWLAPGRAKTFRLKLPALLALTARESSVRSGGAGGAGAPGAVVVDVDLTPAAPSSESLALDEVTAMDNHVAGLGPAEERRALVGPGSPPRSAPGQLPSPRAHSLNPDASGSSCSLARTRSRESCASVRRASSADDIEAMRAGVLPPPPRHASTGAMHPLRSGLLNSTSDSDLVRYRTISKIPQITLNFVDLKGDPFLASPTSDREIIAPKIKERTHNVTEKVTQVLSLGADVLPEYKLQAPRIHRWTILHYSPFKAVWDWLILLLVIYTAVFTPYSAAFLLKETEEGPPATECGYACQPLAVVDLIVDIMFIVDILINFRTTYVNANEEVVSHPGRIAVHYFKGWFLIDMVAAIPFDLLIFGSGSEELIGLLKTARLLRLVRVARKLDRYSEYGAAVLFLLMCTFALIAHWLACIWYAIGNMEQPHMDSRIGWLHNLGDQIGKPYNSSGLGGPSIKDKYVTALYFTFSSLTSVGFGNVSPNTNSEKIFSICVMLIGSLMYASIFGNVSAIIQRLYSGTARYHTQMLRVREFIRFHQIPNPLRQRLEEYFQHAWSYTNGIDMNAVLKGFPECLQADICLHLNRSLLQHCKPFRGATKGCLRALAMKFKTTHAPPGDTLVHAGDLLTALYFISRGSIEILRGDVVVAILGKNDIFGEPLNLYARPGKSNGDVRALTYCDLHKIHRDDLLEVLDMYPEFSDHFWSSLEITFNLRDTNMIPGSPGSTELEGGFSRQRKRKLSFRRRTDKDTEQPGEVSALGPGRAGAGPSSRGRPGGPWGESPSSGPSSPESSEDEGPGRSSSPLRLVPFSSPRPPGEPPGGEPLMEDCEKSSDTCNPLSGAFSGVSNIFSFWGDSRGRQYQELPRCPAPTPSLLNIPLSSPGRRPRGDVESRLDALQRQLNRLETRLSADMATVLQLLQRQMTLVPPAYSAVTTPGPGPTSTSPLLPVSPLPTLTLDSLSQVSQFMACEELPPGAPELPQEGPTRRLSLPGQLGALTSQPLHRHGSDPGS

Structure (SMILES) | hERG inhibition grade (hERG potassium channel; listed as Example 20 of patent CN201911076305.X, hydrochloride) | hERG inhibition grade (hERG potassium channel; listed as example 20 of the prior art CN201911076305.X, hydrochloride) | ED50 in mouse hot plate experiments (Female Kunming mice) [mg/kg] | hERG inhibition grade (hERG potassium channel) | IC50 (hERG potassium channel) [µM]
COc1cccc([C@]2(O)CCN(S(=O)(=O)Cc3ccccc3)C[C@H]2CN(C)C)c1.Cl [Example 20 of CN201911076305.X, reference compound] | moderate inhibitory effects on hERG | μM(Moderate intensity inhibition) | 0.49 |  | 
[2H]C([2H])([2H])N(C[C@@H]1CN(S(=O)(=O)Cc2ccccc2)CC[C@@]1(O)c1cccc(OC)c1)C([2H])([2H])[2H] [II-3hydrochloride] |  |  |  | μM((Weak inhibition) | 14.7
[2H]C([2H])([2H])Oc1cccc([C@]2(O)CCN(S(=O)(=O)Cc3ccccc3)C[C@H]2CN(C([2H])([2H])[2H])C([2H])([2H])[2H])c1 [II-5hydrochloride] |  |  |  | μM((Weak inhibition) | 23.9
[2H]C([2H])([2H])N(C[C@@H]1CN(C(=O)Cc2cc(F)c(F)cc2F)CC[C@@]1(O)c1cccc(OC)c1)C([2H])([2H])[2H] [II-9hydrochloride] |  |  |  | μM((Weak inhibition) | 20.5
[2H]C([2H])([2H])Oc1cccc([C@]2(O)CCN(C(=O)Cc3cc(F)c(F)cc3F)C[C@H]2CN(C([2H])([2H])[2H])C([2H])([2H])[2H])c1 [II-11hydrochloride] |  |  |  | μM((Weak inhibition) | 20.2
